By IC50 is commonly meant the concentration that inhibits the measured activity by half.

Results on 12 compounds are retold here after US12577234B2, “Antagonists of the muscarinic acetylcholine receptor M4” (Vanderbilt University, priority 2017, dated 2026).

Assay [1] deals with T1, human mAChR M4 (Homo sapiens, UniProt P08173).
T1 construct: expressed in transfected cells; host or cells: CHO-K1 (ATCC), stably co-expressing chimeric G protein Gqi5
T1 sequence (P08173 1-479): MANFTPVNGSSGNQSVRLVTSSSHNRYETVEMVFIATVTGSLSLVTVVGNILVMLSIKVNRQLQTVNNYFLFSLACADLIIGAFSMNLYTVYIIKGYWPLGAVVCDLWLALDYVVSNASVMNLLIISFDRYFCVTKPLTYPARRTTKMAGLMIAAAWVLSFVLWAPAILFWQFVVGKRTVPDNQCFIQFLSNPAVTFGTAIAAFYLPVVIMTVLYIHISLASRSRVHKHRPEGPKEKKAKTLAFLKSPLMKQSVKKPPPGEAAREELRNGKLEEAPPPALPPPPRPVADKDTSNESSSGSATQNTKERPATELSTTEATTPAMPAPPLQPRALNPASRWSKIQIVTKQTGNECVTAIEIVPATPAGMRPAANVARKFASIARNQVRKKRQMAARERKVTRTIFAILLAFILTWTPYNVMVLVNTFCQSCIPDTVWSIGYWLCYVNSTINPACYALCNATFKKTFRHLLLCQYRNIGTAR
Put plainly: mAChR M4 cell-based functional assay (calcium mobilization, EC80 acetylcholine), human M4. To be noted: Table 10; for IC50: M4/Gqi5/CHO-K1 cells, decrease of EC80 acetylcholine response. In short, it runs like this: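 CHO-K1 cells stably expressing human M4 with chimeric Gqi5; intracellular calcium rise read on FDSS as fluorescence static ratio at 1 Hz. Compounds in 10-point 1:3 dilution series; IC50 taken as concentration-dependent decrease of the EC80 acetylcholine response, four-parameter logistic fit.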
Background: A change in cytosolic calcium serves as a functional read-out for many receptors and channels.

For assay [2], the target named is T2, rat mAChR M4 (Rattus norvegicus, UniProt P08485).
T2 construct: expressed in transfected cells; host or cells: CHO-K1 (ATCC), stably co-expressing chimeric G protein Gqi5
T2 sequence (P08485 1-478): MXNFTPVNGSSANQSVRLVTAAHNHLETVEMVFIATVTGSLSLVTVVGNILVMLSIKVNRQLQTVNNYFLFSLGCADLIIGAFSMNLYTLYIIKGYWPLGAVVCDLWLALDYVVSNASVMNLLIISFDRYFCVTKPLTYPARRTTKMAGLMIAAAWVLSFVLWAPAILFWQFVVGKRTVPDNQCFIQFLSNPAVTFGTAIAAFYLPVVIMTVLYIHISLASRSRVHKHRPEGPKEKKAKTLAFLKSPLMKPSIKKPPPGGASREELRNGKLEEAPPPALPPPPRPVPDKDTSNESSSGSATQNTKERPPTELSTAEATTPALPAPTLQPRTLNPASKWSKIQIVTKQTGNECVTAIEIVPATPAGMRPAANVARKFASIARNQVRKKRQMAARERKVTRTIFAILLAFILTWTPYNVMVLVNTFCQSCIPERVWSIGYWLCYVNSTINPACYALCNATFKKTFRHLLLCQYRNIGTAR
The assay can be described thus: mAChR M4 cell-based functional assay (calcium mobilization, EC80 acetylcholine), rat M4. The settings on record: Table 10; for IC50: M4/Gqi5/CHO-K1 cells, decrease of EC80 acetylcholine response. The procedure: Human or rat M4 cDNA, along with the chimeric G protein Gqi5, were transfected into Chinese hamster ovary (CHO-K1) cells purchased from the American Type Culture Collection using Lipofectamine2000. M4/Gqi5/CHO cells were grown in Ham's F-12 medium containing 10% heat-inactivated fetal bovine serum (FBS), 20 mM HEPES, 500 μg/mL G418 sulfate, and 200 μg/mL Hygromycin B.
For high throughput measurement of agonist-evoked increases in intracellular calcium, CHO-K1 cells stably expressing muscarinic receptors were plated in growth medium lacking G418 and hygromycin at 15,000 cells/20 μL/well in Greiner 384-well black-walled, tissue culture (TC)-treated, clear-bottom plates (VWR). Cells were incubated overnight at 37° C. and 5% CO2. The next day, cells were washed using an ELX 405 (BioTek) with assay buffer; the final volume was then aspirated to 20 μL. Next, 20 μL of a 2.3 μM stock of Fluo-4/acetoxymethyl ester (Invitrogen, Carlsbad, CA), prepared as a 2.3 mM stock in DMSO and mixed in a 1:1 ratio with 10% (w/v) Pluronic F-127 and diluted in assay buffer, was added to the wells and the cell plates were incubated for 50 min at 37° C. and 5% CO2. Dye was removed by washing with the ELX 405 and the final volume was aspirated to 20 μL. Compound master plates were formatted in a 10 point concentration-response curve (CRC) format (1:3 dilutions) in 100% DMSO with a starting concentration of 10 or 1 mM using a BRAVO liquid handler (Agilent). Test compound CRCs were then transferred to daughter plates (240 nL) using the Echo acoustic plate reformatter (Labcyte, Sunnyvale, CA) and then diluted into assay buffer (40 μL) to a 2× stock using a Thermo Fisher Combi (Thermo Fisher Scientific, Waltham, MA).
Calcium flux was measured using the Functional Drug Screening System (FDSS) 6000 or 7000 (Hamamatsu Corporation, Tokyo, Japan) as an increase in the fluorescent static ratio. Compounds were applied to cells (20 μL, 2×) using the automated system of the FDSS at 2 seconds into the protocol and the data were collected at 1 Hz. At 143 s, 10 μL of an EC20 concentration of the muscarinic receptor agonist acetylcholine was added (5×), followed by the addition of 12 μL of an EC80 concentration of acetylcholine at the 268 s time point (5×). Agonist activity was analyzed as a concentration-dependent increase in calcium mobilization upon compound addition. Positive allosteric modulator activity was analyzed as a concentration-dependent increase in the EC20 acetylcholine response. Antagonist activity was analyzed as a concentration-dependent decrease in the EC80 acetylcholine response; for the purposes of the tables herein, an IC50 (inhibitory concentration 50) was calculated as a concentration-dependent decrease of the response elicited by an EC80 concentration of acetylcholine. Concentration-response curves were generated using a four-parameter logistical equation in XLFit curve fitting software (IDBS, Bridgewater, NJ) for Excel (Microsoft, Redmond, WA) or Prism (GraphPad Software, Inc., San Diego, CA) or the Dotmatics software platform (Dotmatics, Bishop's Stortford, UK).

The structures appear in SMILES notation.

Regarding `CC(C)(C)CCN1C[C@H]2C[C@H](Oc3ccc(Cl)nn3)C[C@H]2C1` [Compound 128, (3aR,5s,6aS)-5-(6-chloropyridazin-3-yl)oxy-2-(3,3-dimethylbutyl)-3,3a,4,5,6,6a-hexahydro-1H-cyclopenta[c]pyrrole], in assay [1], the “Human M4 Emin” value came out at 5% and the IC50 came out at 1090 nM. In addition, in assay [2], the “Rat M4 Emin” value turned out to be 17% and the IC50 worked out at 6330 nM.

Turning to `CC(=O)Nc1ccc(-c2ccc(O[C@H]3C[C@@H]4CN(CCC(C)(C)C)C[C@@H]4C3)nn2)cc1` [Compound 129, N-[4-[6-[[(3aR,5s,6aS)-2-(3,3-dimethylbutyl)-3,3a,4,5,6,6a-hexahydro-1H-cyclopenta[c]pyrrol-5-yl]oxy]pyridazin-3-yl]phenyl]acetamide], in assay [1], the “Human M4 Emin” value turned out to be 4% and the IC50 was found to be 91.2 nM. Besides, in assay [2], the “Rat M4 Emin” value turned out to be 4% and the IC50 was found to be 195 nM.

On to `CC(=O)Nc1ccc(-c2ccc(O[C@H]3C[C@@H]4CN(CC5CCOCC5)C[C@@H]4C3)nn2)cc1` [Compound 132, N-[4-[6-[[(3aR,5s,6aS)-2-(tetrahydropyran-4-ylmethyl)-3,3a,4,5,6,6a-hexahydro-1H-cyclopenta[c]pyrrol-5-yl]oxy]pyridazin-3-yl]phenyl]acetamide], for which, in assay [1], the “Human M4 Emin” value worked out at 6% and the IC50 is 648 nM. In addition, in assay [2], the “Rat M4 Emin” value worked out at 6% and the IC50 was determined as 995 nM.

For `CC(C)(C)CCN1C[C@H]2C[C@H](Oc3ccc(-c4cc(F)ccc4Cl)nn3)C[C@H]2C1` [Compound 137, (3aR,5s,6aS)-5-[6-(2-chloro-5-fluoro-phenyl)pyridazin-3-yl]oxy-2-(3,3-dimethylbutyl)-3,3a,4,5,6,6a-hexahydro-1H-cyclopenta[c]pyrrole], in assay [1], the “Human M4 Emin” value is 3% and the IC50 was found to be 19.8 nM. Further, in assay [2], the “Rat M4 Emin” value stood at 3% and the IC50 turned out to be 313 nM.

On to `CC(C)(C)CCN1C[C@H]2C[C@H](Oc3ccc(-c4ccc5c(c4)OCO5)nn3)C[C@H]2C1` [Compound 138, (3aR,5s,6aS)-5-[6-(1,3-benzodioxol-5-yl)pyridazin-3-yl]oxy-2-(3,3-dimethylbutyl)-3,3a,4,5,6,6a-hexahydro-1H-cyclopenta[c]pyrrole], for which, in assay [1], the “Human M4 Emin” value was 3% and the IC50 worked out at 59.1 nM. For the same compound, in assay [2], the “Rat M4 Emin” value was 3% and the IC50 is 382 nM.

Take `CC(=O)Nc1ccc(-c2ccc(N[C@H]3C[C@@H]4CN(CCC(C)(C)C)C[C@@H]4C3)nn2)cc1` [Compound 140, N-[4-[6-[[(3aR,5s,6aS)-2-(3,3-dimethylbutyl)-3,3a,4,5,6,6a-hexahydro-1H-cyclopenta[c]pyrrol-5-yl]amino]pyridazin-3-yl]phenyl]acetamide]: in assay [1], the “Human M4 Emin” value was 5% and the IC50 is 1.08 nM. For the same compound, in assay [2], the “Rat M4 Emin” value worked out at 3% and the IC50 was 17.1 nM.

As for `CC(C)(C)CCN1C[C@H]2C[C@H](Nc3ccc(-c4ccc(F)cc4Cl)nn3)C[C@H]2C1` [Compound 141, (3aR,5s,6aS)-N-[6-(2-chloro-4-fluoro-phenyl)pyridazin-3-yl]-2-(3,3-dimethylbutyl)-3,3a,4,5,6,6a-hexahydro-1H-cyclopenta[c]pyrrol-5-amine], in assay [1], the “Human M4 Emin” value came out at 4% and the IC50 was 14.8 nM. Further, in assay [2], the “Rat M4 Emin” value is 3% and the IC50 was determined as 138 nM.

With `COc1ccc(-c2ccc(N[C@H]3C[C@@H]4CN(CC5CCOCC5)C[C@@H]4C3)nn2)cc1F` [Compound 222, (3aR,5s,6aS)-N-[6-(3-fluoro-4-methoxy-phenyl)pyridazin-3-yl]-2-(tetrahydropyran-4-ylmethyl)-3,3a,4,5,6,6a-hexahydro-1H-cyclopenta[c]pyrrol-5-amine], in assay [1], the “Human M4 Emin” value was found to be 3% and the 50% inhibitory concentration (IC50) came out at 5 nM. In addition, in assay [2], the “Rat M4 Emin” value is 6% and the IC50 was determined as 63.6 nM.

Regarding `FC(F)Oc1ccc(-c2ccc(N[C@H]3C[C@@H]4CN(CC5CCOCC5)C[C@@H]4C3)nn2)cc1` [Compound 223, (3aR,5s,6aS)-N-[6-[4-(difluoromethoxy)phenyl]pyridazin-3-yl]-2-(tetrahydropyran-4-ylmethyl)-3,3a,4,5,6,6a-hexahydro-1H-cyclopenta[c]pyrrol-5-amine], in assay [1], the “Human M4 Emin” value was 3% and the IC50 worked out at 6.39 nM. Further, in assay [2], the “Rat M4 Emin” value worked out at 6% and the IC50 is 121 nM.

Take `c1csc(-c2ccc(N[C@H]3C[C@@H]4CN(CC5CCOCC5)C[C@@H]4C3)nn2)c1` [Compound 226, (3aR,5s,6aS)-2-(tetrahydropyran-4-ylmethyl)-N-[6-(2-thienyl)pyridazin-3-yl]-3,3a,4,5,6,6a-hexahydro-1H-cyclopenta[c]pyrrol-5-amine]: in assay [1], the “Human M4 Emin” value is given as 6% and the IC50 was determined as 22 nM. Besides, in assay [2], the “Rat M4 Emin” value was found to be 14% and the IC50 turned out to be 605 nM.

Regarding `c1cc(-c2ccc(N[C@H]3C[C@@H]4CN(CC5CCOCC5)C[C@@H]4C3)nn2)cs1` [Compound 227, (3aR,5s,6aS)-2-(tetrahydropyran-4-ylmethyl)-N-[6-(3-thienyl)pyridazin-3-yl]-3,3a,4,5,6,6a-hexahydro-1H-cyclopenta[c]pyrrol-5-amine], in assay [1], the “Human M4 Emin” value is 5% and the IC50 came out at 8.4 nM. In addition, in assay [2], the “Rat M4 Emin” value came to 13% and the IC50 was 2230 nM.

As to `c1cc(C2CC2)ncc1-c1ccc(N[C@H]2C[C@@H]3CN(CC4CCOCC4)C[C@@H]3C2)nn1` [Compound 232, (3aR,5s,6aS)-N-[6-(6-cyclopropyl-3-pyridyl)pyridazin-3-yl]-2-(tetrahydropyran-4-ylmethyl)-3,3a,4,5,6,6a-hexahydro-1H-cyclopenta[c]pyrrol-5-amine], in assay [1], the “Human M4 Emin” value was found to be 4% and the IC50 came to 5.32 nM. For the same compound, in assay [2], the “Rat M4 Emin” value is listed as 8% and the IC50 is 490 nM.
